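Here, GI50 denotes the concentration required for 50% inhibition of growth. At the TGI there is no net growth.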
Assays:
Assay in all cases: inhibition of tumour cell growth, NCI panel, 384-well format; in the data active = GI50 below about 0.43 µM; inactive = the rest
MDA-MB-468 breast = system: MDA-MB-468 breast
EKVX NSCLC = system: EKVX NSCLC
HCT-116 colon = system: HCT-116 colon
SK-MEL-5 melanoma = system: SK-MEL-5 melanoma
HOP-92 NSCLC = system: HOP-92 NSCLC
SN12C renal = system: SN12C renal
TK-10 renal = system: TK-10 renal
U251 glioblastoma = system: U251 glioblastoma
MOLT-4 leukemia = system: MOLT-4 leukemia
ACHN renal = system: ACHN renal
RPMI-8226 leukemia = system: RPMI-8226 leukemia
NCI-H23 lung = system: NCI-H23 lung
MDA-MB-231 breast = system: MDA-MB-231 breast
BT-549 breast = system: BT-549 breast
SNB-19 CNS = system: SNB-19 CNS
NCI-H522 lung = system: NCI-H522 lung
OVCAR-3 ovarian = system: OVCAR-3 ovarian
OVCAR-4 ovarian = system: OVCAR-4 ovarian
SW-620 colon = system: SW-620 colon
KM12 colon = system: KM12 colon
SK-MEL-28 melanoma = system: SK-MEL-28 melanoma
A549 NSCLC = system: A549 NSCLC
PC-3 prostate = system: PC-3 prostate
UO-31 renal = system: UO-31 renal
SR leukemia = system: SR leukemia
SF-295 CNS = system: SF-295 CNS
SNB-75 CNS = system: SNB-75 CNS
MALME-3M melanoma = system: MALME-3M melanoma
HCT-15 colon = system: HCT-15 colon
NCI/ADR-RES ovarian = system: NCI/ADR-RES ovarian
DU-145 prostate = system: DU-145 prostate
LOX IMVI melanoma = system: LOX IMVI melanoma
IGROV1 ovarian = system: IGROV1 ovarian
HT29 colon = system: HT29 colon
RXF 393 renal = system: RXF 393 renal
SF-539 CNS = system: SF-539 CNS
A498 renal = system: A498 renal
UACC-257 melanoma = system: UACC-257 melanoma
SF-268 CNS = system: SF-268 CNS
T-47D breast = system: T-47D breast
SK-OV-3 ovarian = system: SK-OV-3 ovarian
HL-60(TB) leukemia = system: HL-60(TB) leukemia
K-562 leukemia = system: K-562 leukemia
NCI-H226 lung = system: NCI-H226 lung
HOP-62 NSCLC = system: HOP-62 NSCLC
COLO 205 colon = system: COLO 205 colon
786-0 renal = system: 786-0 renal
NCI-H460 NSCLC = system: NCI-H460 NSCLC
NCI-H322M lung = system: NCI-H322M lung
UACC-62 melanoma = system: UACC-62 melanoma
MDA-MB-435 melanoma = system: MDA-MB-435 melanoma
M14 melanoma = system: M14 melanoma
CCRF-CEM leukemia = system: CCRF-CEM leukemia
OVCAR-8 ovarian = system: OVCAR-8 ovarian
CAKI-1 renal = system: CAKI-1 renal
HS 578T breast = system: HS 578T breast

COc1cc(-c2cnn(C)c2)ccc1Nc1ncc2ccnc(N[C@@H](C)C(C)(C)C)c2n1
45 µM: TGI (HS 578T breast)
0.271 µM: TGI (CCRF-CEM leukemia)
0.0647 µM: TGI (MOLT-4 leukemia)
13 µM: TGI (RXF 393 renal)
inactive: GI50 (MDA-MB-468 breast) 0.486 µM | GI50 (EKVX NSCLC) > 100 µM | GI50 (SK-MEL-5 melanoma) > 100 µM | GI50 (HOP-92 NSCLC) 27.5 µM | GI50 (SN12C renal) > 100 µM | GI50 (TK-10 renal) 23.2 µM | GI50 (U251 glioblastoma) 2.09 µM | GI50 (ACHN renal) 3.26 µM | GI50 (NCI-H23 lung) 2.41 µM | GI50 (MDA-MB-231 breast) 3 µM | GI50 (BT-549 breast) 53.6 µM | GI50 (SNB-19 CNS) 60.3 µM | GI50 (NCI-H522 lung) 0.577 µM | GI50 (OVCAR-3 ovarian) > 100 µM | GI50 (OVCAR-4 ovarian) > 100 µM | GI50 (SK-MEL-28 melanoma) > 100 µM | GI50 (PC-3 prostate) > 100 µM | GI50 (UO-31 renal) 14.1 µM | GI50 (SF-295 CNS) 3.54 µM | GI50 (SNB-75 CNS) 1.31 µM | GI50 (MALME-3M melanoma) > 100 µM | GI50 (NCI/ADR-RES ovarian) 0.442 µM | GI50 (IGROV1 ovarian) > 100 µM | GI50 (HT29 colon) 0.632 µM | GI50 (SF-539 CNS) 0.476 µM | GI50 (A498 renal) 0.505 µM | GI50 (UACC-257 melanoma) > 100 µM | GI50 (SF-268 CNS) 2.08 µM | GI50 (T-47D breast) > 100 µM | GI50 (SK-OV-3 ovarian) > 100 µM | GI50 (K-562 leukemia) 0.878 µM | GI50 (NCI-H226 lung) > 100 µM | GI50 (HOP-62 NSCLC) 0.498 µM | GI50 ([…]-0 renal) 0.474 µM | GI50 (NCI-H322M lung) > 100 µM | GI50 (UACC-62 melanoma) 7.46 µM | GI50 (MDA-MB-435 melanoma) > 100 µM | GI50 (M14 melanoma) 10.9 µM | GI50 (CAKI-1 renal) > 100 µM | GI50 (HS 578T breast) 1.7 µM
0.0523 µM: TGI (SR leukemia)
active: GI50 (HCT-116 colon) 0.0447 µM | GI50 (MOLT-4 leukemia) 0.026 µM | GI50 (RPMI-8226 leukemia) 0.302 µM | GI50 (SW-620 colon) 0.112 µM | GI50 (KM12 colon) 0.0699 µM | GI50 (A549 NSCLC) 0.115 µM | GI50 (HCT-15 colon) 0.05 µM | GI50 (DU-145 prostate) 0.376 µM | GI50 (LOX IMVI melanoma) 0.0893 µM | GI50 (RXF 393 renal) 0.29 µM | GI50 (HL-60(TB) leukemia) 0.11 µM | GI50 (COLO 205 colon) 0.0809 µM | GI50 (NCI-H460 NSCLC) 0.0673 µM | GI50 (CCRF-CEM leukemia) 0.0835 µM | GI50 (OVCAR-8 ovarian) 0.326 µM
0.318 µM: TGI (HL-60(TB) leukemia)
88.1 µM: TGI (UACC-62 melanoma)
> 100 µM: TGI (MDA-MB-468 breast) | TGI (EKVX NSCLC) | TGI (HCT-116 colon) | TGI (SK-MEL-5 melanoma) | TGI (HOP-92 NSCLC) | TGI (SN12C renal) | TGI (TK-10 renal) | TGI (U251 glioblastoma) | TGI (ACHN renal) | TGI (RPMI-8226 leukemia) | TGI (NCI-H23 lung) | TGI (MDA-MB-231 breast) | TGI (BT-549 breast) | TGI (SNB-19 CNS) | TGI (NCI-H522 lung) | TGI (OVCAR-3 ovarian) | TGI (OVCAR-4 ovarian) | TGI (SW-620 colon) | TGI (KM12 colon) | TGI (SK-MEL-28 melanoma) | TGI (A549 NSCLC) | TGI (PC-3 prostate) | TGI (UO-31 renal) | TGI (SF-295 CNS) | TGI (SNB-75 CNS) | TGI (MALME-3M melanoma) | TGI (HCT-15 colon) | TGI (NCI/ADR-RES ovarian) | TGI (DU-145 prostate) | TGI (LOX IMVI melanoma) | TGI (IGROV1 ovarian) | TGI (HT29 colon) | TGI (SF-539 CNS) | TGI (A498 renal) | TGI (UACC-257 melanoma) | TGI (SF-268 CNS) | TGI (T-47D breast) | TGI (SK-OV-3 ovarian) | TGI (K-562 leukemia) | TGI (NCI-H226 lung) | TGI (HOP-62 NSCLC) | TGI (COLO 205 colon) | TGI (786-0 renal) | TGI (NCI-H460 NSCLC) | TGI (NCI-H322M lung) | TGI (MDA-MB-435 melanoma) | TGI (M14 melanoma) | TGI (OVCAR-8 ovarian) | TGI (CAKI-1 renal)

Reference: PubChem BioAssay (NCI)
